Where two headings read alike, the source gives them in different places.
Key:
FAAH = target: T1, FAAH (Rattus norvegicus, UniProt P97612); assay: biochemical; format: biochemical; set-up: from tissue; host or cells: rat brain (membrane fraction of homogenate; Wistar rats)
T1 sequence (P97612 1-579): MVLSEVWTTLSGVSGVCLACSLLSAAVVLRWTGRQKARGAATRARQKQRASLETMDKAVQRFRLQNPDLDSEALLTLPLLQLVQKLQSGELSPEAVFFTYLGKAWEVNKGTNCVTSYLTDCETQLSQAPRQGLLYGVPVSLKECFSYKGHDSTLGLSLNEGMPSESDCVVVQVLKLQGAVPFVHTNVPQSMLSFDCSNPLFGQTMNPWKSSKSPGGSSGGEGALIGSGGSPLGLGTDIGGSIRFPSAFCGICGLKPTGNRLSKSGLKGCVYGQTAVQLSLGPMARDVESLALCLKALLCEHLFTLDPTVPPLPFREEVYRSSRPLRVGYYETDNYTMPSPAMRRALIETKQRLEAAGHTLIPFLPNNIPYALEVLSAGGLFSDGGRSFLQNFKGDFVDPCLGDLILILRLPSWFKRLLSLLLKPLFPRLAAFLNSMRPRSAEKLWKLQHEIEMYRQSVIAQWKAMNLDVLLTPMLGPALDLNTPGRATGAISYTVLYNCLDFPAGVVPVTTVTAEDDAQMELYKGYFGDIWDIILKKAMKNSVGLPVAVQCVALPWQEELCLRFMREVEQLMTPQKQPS

[1] = target: electric eel acetylcholinesterase (Electrophorus electricus, UniProt O42275); assay: biochemical
Source text: We prepared cell fractions from rat brain homogenates, and assayed membrane FAAH activity and cytosol MGL activity using anandamide [ethanolamine-3H] (American Radiolabeled Chemicals, ARC (St. Louis Mo.), 60 Ci/mmol) and 2-mono-oleoyl-glycerol-[glycerol-1,2,3^−3H] (ARC, St. Louis Mo., 20 Ci/mmol), respectively, as substrates (Dinh, T. Proc. Natl. Acad. Sci. U.S.A. (2002)). We conducted [^3H]anandamide transport assays in human astrocytoma cells (Piomelli, D. et al., Proc. Natl. Acad. Sci. U.S.A., 96, 5802-5807 (1999)); CB1 and CB2 binding assays in rat cerebellar membranes and CB2-overexpressing Chinese hamster ovary cells (Receptor Biology-Perkin Elmer, Wellesley, Mass.), respectively, using [^3H]WIN-55212-2 (NEN-Dupont, Boston, Mass., 40-60 Ci/mmol) as a ligand (Devane, W. A. et al. Science, 258, 1946-1949 (1992)); cholinesterase assays with a commercial kit (Sigma, St. Louis, Mo.), using purified enzymes (electric eel acetylcholinesterase type V-S and horse serum cholinesterase; both from Sigma, St. Louis, Mo.) and following manufacturer's instructions.

[2] = Table 4, FAAH IC50, read-out: Inhibition of Amidohydrolase IC50
[3] = Inhibition of Amidohydrolase IC50(μM)
[4] = Table 3, read-out: Amidohydrolase IC50
[5] = Table 5, rat brain membranes, [3H]anandamide, read-out: IC50 (nM) ± S.E.M.
[6] = Table 6, meta-substituted derivatives, read-out: pIC50 obsd (converted)

Chain of electric eel acetylcholinesterase (O42275 whole entry): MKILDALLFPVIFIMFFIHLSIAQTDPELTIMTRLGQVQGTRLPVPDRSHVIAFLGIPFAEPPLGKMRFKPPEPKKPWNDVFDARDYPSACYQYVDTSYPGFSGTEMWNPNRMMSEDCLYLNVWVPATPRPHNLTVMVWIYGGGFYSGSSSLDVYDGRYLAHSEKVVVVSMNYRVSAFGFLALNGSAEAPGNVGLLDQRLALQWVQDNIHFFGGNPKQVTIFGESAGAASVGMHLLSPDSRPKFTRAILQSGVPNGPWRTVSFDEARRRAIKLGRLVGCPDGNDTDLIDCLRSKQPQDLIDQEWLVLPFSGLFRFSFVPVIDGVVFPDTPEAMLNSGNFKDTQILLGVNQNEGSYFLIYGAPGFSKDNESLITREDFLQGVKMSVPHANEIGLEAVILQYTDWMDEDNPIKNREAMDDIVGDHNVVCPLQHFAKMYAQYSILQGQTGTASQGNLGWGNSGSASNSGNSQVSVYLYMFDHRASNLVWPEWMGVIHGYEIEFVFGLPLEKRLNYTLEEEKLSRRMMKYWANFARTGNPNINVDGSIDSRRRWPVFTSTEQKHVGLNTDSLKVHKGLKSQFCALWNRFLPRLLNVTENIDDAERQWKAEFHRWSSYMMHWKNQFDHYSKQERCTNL

Question: How did the IC50 (FAAH; [2]) turn out when `Cc1cccc(NC(=O)OC2CCCCC2)c1` [PL#57] was run?
Answer: 0.8 µM

Question: With `O=C(NC1CCCCC1)Oc1ccc(/C=C/c2ccccc2)cc1` [PL#24] as the molecule, how does the IC50 (FAAH; read-out: Inhibition of Amidohydrolase IC50) read?
Answer: 3.3 µM

Question: `O=C(NC(=O)c1ccc(-c2cccc(OC(=O)NC3CCCCC3)c2)cc1)NC1CCCCC1` [PL#42] was tested. Which IC50 (FAAH; [3]) did it give?
Answer: ~30 µM

Question: How did the IC50 (FAAH; [2]) turn out when `Cc1cccc(-c2cccc(OC(=O)NC3CCCCC3)c2)c1` [PL#43] was run?
Answer: 0.1 µM

Question: With `O=C(NC1CCCCC1)Oc1cccc(-c2ccc(C(F)(F)F)cc2)c1` [PL#38] as the molecule, how does the IC50 (FAAH; [3]) read?
Answer: 1.6 µM

Question: What does the source list for `CCCc1cccc(-c2cccc(OC(=O)NC3CCCCC3)c2)c1` [Compound 3p]?
Answer: IC50 (FAAH; IC50 (nM) ± S.E.M.): 0.11 ± 0.016 µM; IC50 (FAAH; pIC50 obsd): 0.11 µM

Question: Which IC50 (FAAH; [4]) does the source give for `CCCCOC(=O)Oc1ccc(C(=O)Oc2ccc(OC)cc2)cc1` [PL#17, O-butyl 4-(4-methoxyphenoxycarbonyl)-phenyl carbonate] here?
Answer: 9.1 µM

Question: What about the IC50 (FAAH; [2]) of the same molecule?
Answer: 9.1 µM

Question: What about the IC50 [1] of the same molecule?
Answer: > 30000 nM

Question: Which IC50 (FAAH; [2]) does the source give for `CCNC(=O)OCC12CC3CC(CC(C3)C1)C2` [#31] here?
Answer: > 30 µM

Question: With `Nc1ccc(-c2cccc(OC(=O)NC3CCCCC3)c2)cc1` [PL#39] as the molecule, how does the IC50 (FAAH; [3]) read?
Answer: 0.51 µM

Question: With `O=C(NC1CCCCC1)Oc1cccc(-c2cccc(C(F)(F)F)c2)c1` [Compound 3g] as the molecule, how does the IC50 (FAAH; IC50 (nM) ± S.E.M.) read?
Answer: 0.146 ± 0.016 µM

Question: What about the IC50 (FAAH; pIC50 obsd) of the same molecule?
Answer: 0.145 µM

Question: `Cc1ccc(OC(=O)NC2CCCCC2)cc1-c1ccccc1` [PL#48] was tested. Which IC50 (FAAH; [2]) did it give?
Answer: 0.2 µM

Question: Which IC50 (FAAH; [2]) does the source give for `O=C(NC1CCCCC1)Oc1ccc([N+](=O)[O-])c(-c2ccccc2)c1` [PL#58] here?
Answer: > 30 µM

Question: For `O=C(NC1CCCCC1)Oc1cccc(-c2cccc(CCO)c2)c1` [Compound 3w], which IC50 (FAAH; [5]) is on record?
Answer: 0.0187 ± 0.0045 µM

Question: And the IC50 (FAAH; [6])?
Answer: 0.0186 µM

Question: `O=C(NC1CCCCC1)Oc1ccc2cccc(Br)c2c1` [PL#27] was tested. Which IC50 (FAAH; [2]) did it give?
Answer: 0.17 µM

Question: Which IC50 (FAAH; [2]) does the source give for `O=C(Nc1ccccc1)OC1CCCCC1` [PL#56] here?
Answer: 3.1 µM

Question: For `O=C(NC1CCCCC1)Oc1cccc(-c2cccc(O)c2)c1` [Compound 3u], which IC50 (FAAH; IC50 (nM) ± S.E.M.) is on record?
Answer: 0.00865 ± 0.0001 µM

Question: And the IC50 (FAAH; pIC50 obsd)?
Answer: 0.00871 µM

Question: Which IC50 (FAAH; [5]) does the source give for `O=C(NC1CCCCC1)Oc1cccc(-c2cccc(F)c2)c1` [Compound 3k] here?
Answer: 0.0966 ± 0.004 µM

Question: What about the IC50 (FAAH; [6]) of the same molecule?
Answer: 0.0955 µM

Question: With `Cc1cccc(-c2cccc(OC(=O)NC3CCCCC3)c2)c1` [Compound 3h] as the molecule, how does the IC50 (FAAH; [5]) read?
Answer: 0.0617 ± 0.019 µM

Question: And the IC50 (FAAH; [6])?
Answer: 0.0617 µM

Question: What about the “inhibition of FAAH activity (in words)” value (FAAH; rat brain membranes) of the same molecule?
Answer: as potent as the parent compound

Question: Which IC50 (FAAH; [2]) does the source give for `O=C(NC(=O)c1ccc(OC(=O)NC2CCCCC2)cc1-c1ccccc1)NC1CCCCC1` [PL#50] here?
Answer: 3.1 µM

Question: Which IC50 (FAAH; [2]) does the source give for `O=C(Nc1cccc2ccccc12)NC1CCCCC1` [PL#20] here?
Answer: > 30 µM

Question: How did the IC50 (FAAH; [2]) turn out when `CC1=CC(C)(C)N(C(=O)NC2CCCCC2)c2cc(C)c(C)cc21` [PL#19] was run?
Answer: > 30 µM

Question: Which IC50 (FAAH; [5]) does the source give for `O=C(NC1CCCCC1)Oc1cccc(-c2cccc(Oc3ccccc3)c2)c1` [Compound 3m] here?
Answer: 0.42 ± 0.086 µM

Question: And the IC50 (FAAH; [6])?
Answer: 0.417 µM

Question: With `NC(=O)c1ccc(-c2cccc(OC(=O)NC3CCCCC3)c2)cc1` [Compound 3c] as the molecule, how does the IC50 (FAAH; [5]) read?
Answer: 5.91 µM

Question: For `NC(=O)c1ccc(-c2cccc(OC(=O)NC3CCCCC3)c2)cc1` [PL#40], which IC50 (FAAH; [2]) is on record?
Answer: > 10 µM

Question: With `CCCCNC(=O)Oc1ccc2cc(Br)ccc2c1` [PL#3, 6-bromo-2-naphtyhyl N-butylcarbamate] as the molecule, how does the IC50 (FAAH; [4]) read?
Answer: 0.76 µM

Question: And the IC50 (FAAH; [2])?
Answer: 0.76 µM

Question: What about the IC50 [1] of the same molecule?
Answer: > 30000 nM

Question: For `O=C(Nc1ccc(F)cc1)Oc1ccc(OCc2ccccc2)cc1` [PL#8, 4-(benzyloxy) phenyl N-(4-fluorophenyl)carbamate], which IC50 (FAAH; [4]) is on record?
Answer: > 30 µM

Question: And the IC50 (FAAH; [2])?
Answer: > 30 µM

Question: And the IC50 [1]?
Answer: > 30000 nM

Question: Which IC50 (FAAH; IC50 (nM) ± S.E.M.) does the source give for `NCc1cccc(-c2cccc(OC(=O)NC3CCCCC3)c2)c1` [Compound 3z] here?
Answer: 21.2 µM

Question: `O=C(NC1CCCCC1)Oc1cccc(-c2cccc([N+](=O)[O-])c2)c1` [Compound 3q] was tested. Which IC50 (FAAH; [5]) did it give?
Answer: 0.0496 ± 0.002 µM

Question: What about the IC50 (FAAH; [6]) of the same molecule?
Answer: 0.0501 µM

Question: How did the IC50 (FAAH; [5]) turn out when `CC(=O)c1cccc(-c2cccc(OC(=O)NC3CCCCC3)c2)c1` [Compound 3s] was run?
Answer: 0.0091 ± 0.0005 µM

Question: And the IC50 (FAAH; [6])?
Answer: 0.00912 µM

Question: With `Nc1cccc(-c2cccc(OC(=O)NC3CCCCC3)c2)c1` [Compound 3j] as the molecule, how does the “inhibition of FAAH activity (in words)” value (FAAH) read?
Answer: as potent as the parent compound

Question: And the IC50 (FAAH; IC50 (nM) ± S.E.M.)?
Answer: 0.0646 ± 0.009 µM

Question: And the IC50 (FAAH; pIC50 obsd)?
Answer: 0.0646 µM

Question: How did the IC50 (FAAH; [2]) turn out when `O=C(NC1CCCCC1)Oc1cccc(-c2ccc(F)cc2)c1` [PL#41] was run?
Answer: 0.09 µM

Question: How did the IC50 (FAAH; [2]) turn out when `O=C(NC1CCCCC1)Oc1cc(-c2ccccc2)ccc1[N+](=O)[O-]` [PL#60] was run?
Answer: > 30 µM

Question: Which results are given for `O=C(NC1CCCCC1)Oc1cccc(-c2ccc(F)cc2)c1` [Compound 3e]?
Answer: IC50 (FAAH; [5]): 0.065 ± 0.014 µM; inhibition of FAAH activity (in words) (FAAH; rat brain membranes): comparable IC50 value

Question: How did the IC50 (FAAH; [2]) turn out when `O=C(NC1CCCCC1)Oc1cccc(-c2cccc(-c3ccccc3)c2)c1` [#34] was run?
Answer: 0.56 µM

Question: Which IC50 (FAAH; [4]) does the source give for `O=C(Oc1ccccc1)N1CCCCC1` [PL#1, 1-phenyl-N-piperidinecarboxylate] here?
Answer: > 30 µM

Question: What about the IC50 (FAAH; [2]) of the same molecule?
Answer: > 30 µM

Question: What about the IC50 [1] of the same molecule?
Answer: > 30000 nM

Source: US20040127518A1, “Modulation of anxiety through blockade of anandamide hydrolysis” (priority 2002, published 2004)
